According to ChEMBL document CHEMBL3886681, “Rotenone derivatives and a use thereof” (2016):

Target: T1, Pancreatic triacylglycerol lipase (Sus scrofa, UniProt P00591)
T1 sequence (P00591 whole entry): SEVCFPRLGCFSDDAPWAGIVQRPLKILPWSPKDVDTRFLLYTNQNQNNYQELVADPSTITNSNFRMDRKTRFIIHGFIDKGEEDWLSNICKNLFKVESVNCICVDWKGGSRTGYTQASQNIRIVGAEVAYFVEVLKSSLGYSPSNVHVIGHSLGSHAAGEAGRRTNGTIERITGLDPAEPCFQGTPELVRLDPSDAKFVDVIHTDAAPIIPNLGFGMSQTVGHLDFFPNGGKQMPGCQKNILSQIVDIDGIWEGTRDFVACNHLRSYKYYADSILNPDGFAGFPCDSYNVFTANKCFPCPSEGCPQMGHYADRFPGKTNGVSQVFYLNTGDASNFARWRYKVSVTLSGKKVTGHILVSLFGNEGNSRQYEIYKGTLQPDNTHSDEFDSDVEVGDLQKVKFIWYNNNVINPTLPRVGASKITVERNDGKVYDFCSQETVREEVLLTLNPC
Test: Inhibition Assay: Particularly, pancreatic lipase inhibiting activity was measured by the conventional method known to those in the art (Kim, J. H.; Kim, H. J.; Park, H. W.; Youn, S. H.; Choi, D. Y.; Shin, C. S. FEMS Microbiol. Lett. 2007, 276, 93.). To prepare the enzyme buffer, 30 mL (10 units) of pig pancreatic lipase solution (Sigma, St. Louis, Mo.) and 1 mM EDTA (pH 6.8) were mixed with 10 mM MOPS (morpholinepropanesulphonic acid), which was added to 850 mL of tris buffer (100 mM Tris-HCl and 5 mM CaCl2, pH 7.0). Then, 100 mL of the rotenoisin A or B of the present invention was mixed with the prepared enzyme buffer at the experimental concentration. […] 20 mL of substrate solution containing 20 mM p-nitrophenylbutyrate dissolved in dimethyl formaide was added to the enzyme buffer, followed by culture for 15 minutes at 37° C. that was the temperature adequate for enzyme reaction.

C=C(C)[C@H]1Cc2c(ccc3c2OC2COc4cc(OC)c(OC)cc4C2[C@@]32CO2)O1 (stereo partly specified)
IC50: 6.3 µM
